Data: US20230082989A1, “DEVICES AND METHODS FOR TREATING CANCER AND CARDIAC WASTING” (Nazzano Devices Limited, priority 2020, published 2023)

Experiments:
Type in all cases: in vivo, human
[1] = test system: patients with advanced cancer; test: Quality of life by Minnesota Living with Heart Failure Questionnaire (MLHFQ), ivabradine study; settings: N=4, LVEF>50%; total score range 0-105, lower = better QoL, <24 good QoL
Description: N=4, LVEF>50%. […] MLHFQ has a total score range of 0-105. A lower score indicated a better QoL, with a score of <24 indicating good QoL, scores from 24 to […] indicating moderately impaired QoL, scores >45 indicating low QoL.
(§1) In this study 4 cancer patients with no known heart failure and with normal left ventricular function (LEF>50%) were studied. They all had histologically confirmed diagnoses of cancer (see table 1), and all suffered poor quality of life, with three showing a Karnofksy performance score of 70-80% (indicating an inability to carry on normal activity or to do active work) and one showing a Karnofksy performance score of 50-60% (indicating a need for considerable assistance and frequent medical care). […] All were given Ivabradine at a starting dose of 5 mg twice a day. Heart rate was reduced in all patients from 104.5±10.4 bpm to 77.0±10.9 bpm. […] The questionnaires are the Minnesota Living with Heart Failure Questionnaire (MLHFQ) (see FIG. 15) and the Kansas City Cardiomyopathy Questionnaire (KCCQ) (see FIG. 14). In the […] indicate a better quality of life and in the MLWHFQ lower scores indicate a better quality of life. The two figures show the clinically important improvement in symptoms and quality of life achieved in these patient by the use of the heart failure drug Ivabradine.

[2] = test system: patients with advanced cancer; test: Prospective study of ivabradine in advanced cancer patients: heart rate; settings: 4 cancer patients, no known heart failure, LVEF>50%, heart rate >70 bpm; Ivabradine starting dose 5 mg twice a day; reduced from 104.5±10.4 bpm
Description: In this study an effect of a use of a heart drug in advanced cancer was studied. In some cases, a heart drug can comprise ivabradine. In some cases, ivabradine can be a selective antagonist of myocardial If (funny) channels. […] In some cases, ivabradine can provide pure heart rate reduction, reducing a diastolic depolarization slope, without altering other cardiac and hemodynamic parameters. In some cases, ivabradine can be effective for a treatment of an ischemic heart disease. In some cases, ivabradine can reduce episodes of both symptomatic angina pectoris and myocardial ischemia, and in heart failure where it can reduce mortality and morbidity. In some cases, it may only be approved or recommended for treatment of these two conditions. In some cases, ivabradine may have never been recommended for a treatment of a cancer patient. Disclosed herein in some embodiments, are methods in which ivabradine can be administered for a treatment of a cancer patient.
In this study 4 cancer patients with no known heart failure and with normal left ventricular function (LEF>50%) were studied. […]

[3] = test system: patients with advanced cancer; test: Quality of life by Kansas City Cardiomyopathy Questionnaire (KCCQ), ivabradine study
Description: N=4, LVEF>50%. A 5 unit increase was considered a clinically meaningful change. […] The KCCQ score range is 0-100, with higher scores indicating better QoL, and improvements of ≥5 indicated clinically important changes.
as §1

[4] = test system: advanced cancer patients; test: 24 h ECG recording (mean heart rate, SDNN, NSVT) in advanced cancer patients receiving heart failure drugs, case series
Method: (§2) In some cases, SGLT2 inhibitors, Dapagliflozin or Empagliflozin can be used for treatment of type 2 diabetes, heart failure, or a combination thereof. Disclosed herein are methods comprising administering these drugs to advanced cancer patients to improve a heart muscle in these patients. We here describe 5 advanced cancer patients, who were treated with either an SGLT2 inhibitor, an ACE inhibitor, a beta-blocker or an Angiotensin receptor blocker, all of which are shown to be effective heart failure therapies.

[5] = test system: advanced cancer patients; test: Self-rated health / EQ5D5L index in advanced cancer patients receiving heart failure drugs, case series; settings: for Symptom status, EQ5D5L Index: 1 best possible, 0 worst possible
Method: as §2

[6] = test system: advanced cancer patients; test: Interpretation of case reports: protection from heart muscle wasting, NSVT and early death
[7] = test system: advanced cancer patients; test: Hand grip strength, 4 meter walk and 6-minute walk test in advanced cancer patients receiving heart failure drugs, case series
Method: as §2

[8] = test system: advanced cancer patients; test: Echocardiogram (LVEF, LV mass) in advanced cancer patients receiving heart failure drugs, case series
Method: as §2

[9] = test system: advanced cancer patients; test: Survival follow-up of advanced cancer patients receiving heart failure drugs, case series
[10] = Case 10: Lymphoma Ann Arbor stage 4 E, Ramipril 2.5 mg with co-medication
[11] = Case 11: Lymphoma Ann Arbor stage 4 E, Ramipril 10 mg with co-medication
[12] = Case 12: Multiple Myeloma stage 3, Spironolactone 25 mg, Candesartan 32 mg and Candesartan 8 mg listed, with co-medication
[13] = Case 13: Lung cancer UICC stage 4B, Spironolactone 25 mg and Candesartan 32 mg with co-medication
[14] = Case 14: Breast Cancer UICC stage 4, Spironolactone 25 mg with co-medication

In the case of `COc1cc2c(cc1OC)CC(=O)N(CCCN(C)C[C@H]1Cc3cc(OC)c(OC)cc31)CC2` [Ivabradine], the “MLHFQ score, baseline to follow-up” value [1] is reported as “improvements from baseline to follow-up, with good QoL at follow-up”, the “Heart rate on ivabradine” value [2] is reported as 77.0±10.9 bpm and the “Symptoms (breathlessness, fatigue) by MLHFQ and KCCQ symptom scores” value ([3]; 4 cancer patients, addition of ivabradine 5 mg twice a day starting dose) is reported as “importantly improved symptoms”. The “KCCQ score improvement from baseline to follow up” value ([3]; N=4, LVEF>50%, score range 0-100, higher = better QoL, improvement ≥5 clinically important) was at least 5.

`CCOC(=O)[C@H](CCc1ccccc1)N[C@@H](C)C(=O)N1[C@H](C(=O)O)C[C@@H]2CCC[C@@H]21` [Ramipril] was tested, and the “Heart rate variability SDNN (24 h ECG)” value [4, 10] was 95 ms, the “Mean heart rate (24 h ECG)” value [4, 10] was 64 beats per minute and the “Non-sustained ventricular tachycardia (24 h ECG)” value [4, 10] was “no non-sustained ventricular tachycardia”. For the same compound, the “Heart rate variability SDNN (24 h ECG)” value [4, 11] was 120 ms, the “Mean heart rate (24 h ECG)” value [4, 11] was 77 beats per minute and the “Non-sustained ventricular tachycardia (24 h ECG)” value [4, 11] was “no non-sustained ventricular tachycardia”. For the same compound, the Self-rated health ([5]; Case 10: Lymphoma Ann Arbor stage 4 E, Ramipril 2.5 mg with co-medication, 1=very good, 5=very poor) was 3, the “Symptom status, EQ5D5L Index” value [5, 11] was 0.999 and the “Interpretation of the case” value [6, 10] was “protected from heart muscle wasting, life-threatening non-sustained ventricular tachycardia and early death”. The “Interpretation of the case” value [6, 11] was “protected from heart muscle wasting, life-threatening non-sustained ventricular tachycardia and early death”, the “Distance walked in 6 minutes” value [7, 10] was 440 meters and the “Hand grip muscle strength” value [7, 10] was 29 kg. For the same compound, the “Time to walk 4 meters” value [7, 10] was 3.5 s, the “Hand grip muscle strength” value [7, 11] was 47 kg and the “LV mass (echocardiogram)” value [8, 10] was 189 gram. For the same compound, the “LVEF (echocardiogram)” value [8, 10] was 63%, the “LV mass (echocardiogram)” value [8, 11] was 227 gram and the “LVEF (echocardiogram)” value [8, 11] was 67%. For the same compound, the “Survival (still alive after)” value [9, 10] was over 458 days and the “Survival (still alive after)” value [9, 11] was over 666 days.

`CC(=O)S[C@@H]1CC2=CC(=O)CC[C@]2(C)[C@H]2CC[C@@]3(C)[C@@H](CC[C@@]34CCC(=O)O4)[C@H]12` [Spironolactone] was tested, and the “Heart rate variability SDNN (24 h ECG)” value [4, 12] was 112 ms, the “Mean heart rate (24 h ECG)” value [4, 12] was 69 beats per minute and the “Non-sustained ventricular tachycardia (24 h ECG)” value [4, 12] was “no non-sustained ventricular tachycardia”. For the same compound, the “Heart rate variability SDNN (24 h ECG)” value [4, 13] was 101 ms, the “Non-sustained ventricular tachycardia (24 h ECG)” value [4, 13] was “no non-sustained ventricular tachycardia” and the “Average heart rate (24 h ECG)” value [4, 14] was 85 bpm. For the same compound, the “Heart rate variability SDNN (24 h ECG)” value [4, 14] was 142 ms, the “Non-sustained ventricular tachycardia (24 h ECG)” value [4, 14] was “no non-sustained ventricular tachycardia” and the “Symptom status, EQ5D5L Index” value [5, 12] was 0.887. For the same compound, the “Interpretation of the case” value [6, 13] was “protected from heart muscle wasting, life-threatening non-sustained ventricular tachycardia and early death”, the “Interpretation of the case” value [6, 14] was “protected from heart muscle wasting, life-threatening non-sustained ventricular tachycardia and early death” and the “Distance walked in 6 minutes” value [7, 12] was 527 meters. The “Hand grip muscle strength” value [7, 12] was 47 kg, the “Time to walk 4 meters” value [7, 12] was 2.5 s and the “Hand grip muscle strength” value [7, 13] was 40 kg. For the same compound, the “Hand grip muscle strength” value [7, 14] was 40 kg, the “LV mass (echocardiogram)” value [8, 13] was 148 gram and the “LVEF (echocardiogram)” value [8, 13] was 66%. The “LV mass (echocardiogram)” value [8, 14] was 233 gram, the “LVEF (echocardiogram)” value [8, 14] was 67% and the “Survival (still alive after)” value [9, 14] was over 235 days.
